Test results taken from PMC9333195, “Discovery of 2-Phenylquinoline-4-Carboxylic Acid Derivatives as Novel Histone Deacetylase Inhibitors” (Frontiers in Chemistry, 2022).

How the values were obtained:
[1] = test system: Hela nucleus extract containing a mixture of HDAC isoforms; assay: In vitro HDAC inhibitory assay, HeLa cell nuclear extract screening at 2 µM; assay type: biochemical; conditions: 2.0 µM compound, mean of three experiments
Experimental: The HDAC enzyme inhibitory activities of synthesized compounds were evaluated against Hela nucleus extract containing a mixture of HDAC isoforms. Percentage inhibitory rate (PIR) was calculated to determine the activity of tested compounds (Table 1).
All HDAC enzymes were purchased from BPS Bioscience. […] The reaction was terminated by adding 100 μl of imaging agent containing trypsin and trichostatin A (TSA). After standing for 20 min, the fluorescence intensity was measured at the excitation and emission wavelengths of 360 and 460 nm with a microplate reader. The inhibition rate was calculated from the fluorescence intensity readings of the test wells relative to the control wells, and the IC50 curve and value were determined by GraphPad Prism 6.0 software.

MCF-7 = assay: CCK-8 antiproliferative assay, MCF-7; conditions: Homo sapiens, MCF7, 72 h, read-out: Antiproliferative IC50 MCF-7
Experimental: (§1) The proliferation of cancer cells was tested by CCK-8 assay. Briefly, cells were seeded in a 96-well plate with about 5 × 10^3 cells in each well. […] The light absorbance at 450 nm was measured by using an Opsys microplate reader (Dynex Technologies, Chantilly, VA, United States).

HDAC1 = HDAC1 (Homo sapiens, UniProt Q13547); assay: In vitro HDAC inhibitory assay, recombinant HDAC1
MDA-MB-468 = assay: CCK-8 antiproliferative assay, MDA-MB-468; conditions: Homo sapiens, MDA-MB-468, 72 h, read-out: Antiproliferative IC50 MDA-MB-468
Experimental: as §1

HDAC2 = HDAC2 (Homo sapiens, UniProt Q92769); assay: In vitro HDAC inhibitory assay, recombinant HDAC2
HDAC3 = HDAC3 (Homo sapiens, UniProt O15379); assay: In vitro HDAC inhibitory assay, recombinant HDAC3
MDA-MB-231 = assay: CCK-8 antiproliferative assay, MDA-MB-231; conditions: Homo sapiens, MDA-MB-231, 72 h, read-out: Antiproliferative IC50 MDA-MB-231
Experimental: (§2) The proliferation of cancer cells was tested by CCK-8 assay. Briefly, cells were seeded in a 96-well plate with about 5 × 10^3 cells in each well. In the K652 cell screening, cells were treated with 2.0 μM of tested compounds. […] The light absorbance at 450 nm was measured by using an Opsys microplate reader (Dynex Technologies, Chantilly, VA, United States).

HepG2 = assay: CCK-8 antiproliferative assay, HepG2; conditions: Homo sapiens, HepG2, 72 h, read-out: Antiproliferative IC50 HepG2
Experimental: as §2

Fadu = assay: CCK-8 antiproliferative assay, Fadu; conditions: Homo sapiens, 72 h, read-out: Antiproliferative IC50 Fadu
Experimental: as §2

U266 = assay: CCK-8 antiproliferative assay, U266; conditions: Homo sapiens, U-266, 72 h, read-out: Antiproliferative IC50 U266
Experimental: as §1

U937 = assay: CCK-8 antiproliferative assay, U937; conditions: Homo sapiens, U-937, 72 h, read-out: Antiproliferative IC50 U937
Experimental: as §2

A549 = assay: CCK-8 antiproliferative assay, A549; conditions: Homo sapiens, A549, 72 h, read-out: Antiproliferative IC50 A549
Experimental: as §1

K562 cells [2] = assay: CCK-8 antiproliferative assay, K562; conditions: Homo sapiens; for IC50: K562, 72 h, read-out: Antiproliferative IC50 K562; for inhibition at 2 µM: K562, read-out: K562 percentage inhibitory rate
Experimental: as §2

A2780 = assay: CCK-8 antiproliferative assay, A2780; conditions: Homo sapiens, A2780, 72 h, read-out: Antiproliferative IC50 A2780
Experimental: as §1

HDAC6 = molecular target: T1, HDAC6 (Homo sapiens, UniProt Q9UBN7); assay: In vitro HDAC inhibitory assay, recombinant HDAC6
T1 sequence (Q9UBN7 1-1215): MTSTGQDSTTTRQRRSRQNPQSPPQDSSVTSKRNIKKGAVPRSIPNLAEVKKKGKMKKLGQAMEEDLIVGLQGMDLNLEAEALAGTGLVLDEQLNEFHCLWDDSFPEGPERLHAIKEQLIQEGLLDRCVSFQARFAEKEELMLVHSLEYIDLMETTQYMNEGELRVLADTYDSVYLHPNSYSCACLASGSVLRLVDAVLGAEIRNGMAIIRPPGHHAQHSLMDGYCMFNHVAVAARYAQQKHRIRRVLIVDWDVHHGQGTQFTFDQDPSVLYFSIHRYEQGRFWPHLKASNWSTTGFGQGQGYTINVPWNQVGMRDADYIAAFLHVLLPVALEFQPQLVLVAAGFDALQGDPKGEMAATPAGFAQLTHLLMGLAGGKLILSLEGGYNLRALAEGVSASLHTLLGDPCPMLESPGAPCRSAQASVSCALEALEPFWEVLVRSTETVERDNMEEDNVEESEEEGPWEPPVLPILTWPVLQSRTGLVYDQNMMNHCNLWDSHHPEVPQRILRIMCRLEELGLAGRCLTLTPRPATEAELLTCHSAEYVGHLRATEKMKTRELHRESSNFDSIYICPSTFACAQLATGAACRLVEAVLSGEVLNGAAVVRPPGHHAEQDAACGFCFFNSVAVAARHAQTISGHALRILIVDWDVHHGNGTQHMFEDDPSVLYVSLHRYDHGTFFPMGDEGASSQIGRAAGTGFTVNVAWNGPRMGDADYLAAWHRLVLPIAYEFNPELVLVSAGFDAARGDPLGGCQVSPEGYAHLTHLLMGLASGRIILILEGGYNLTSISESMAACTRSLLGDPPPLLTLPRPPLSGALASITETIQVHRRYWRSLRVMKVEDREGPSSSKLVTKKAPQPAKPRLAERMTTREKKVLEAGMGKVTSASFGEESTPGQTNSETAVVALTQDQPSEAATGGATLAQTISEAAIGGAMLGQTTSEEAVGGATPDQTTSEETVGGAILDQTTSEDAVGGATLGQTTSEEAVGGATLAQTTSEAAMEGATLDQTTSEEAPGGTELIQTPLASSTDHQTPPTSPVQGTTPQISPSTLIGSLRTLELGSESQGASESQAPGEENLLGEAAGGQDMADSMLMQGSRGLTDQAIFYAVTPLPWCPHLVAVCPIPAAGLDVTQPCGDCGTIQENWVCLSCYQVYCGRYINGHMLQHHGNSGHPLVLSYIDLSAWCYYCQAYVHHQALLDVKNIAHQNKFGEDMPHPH

K562 cells [3] = assay: Cell apoptosis analysis by flow cytometry (Annexin V-BV421 / 7-AAD); conditions: 24 h, control 1.14%
Experimental: Cells were incubated with Annexin V-BV421(Becton Dickinson, United States) and 7-AAD (Becton Dickinson, United States) double labeling for 30 min in the dark at room temperature and measured by flow cytometry (FACSAriaIII, Becton Dickinson, United States). The data was analyzed by using Flowjo-V10 software.

K562 cells [4] = assay: Cell cycle analysis by flow cytometry (PI staining); assay type: cell-based; conditions: 24 h; for G2/M phase ratio of K562 cells: control 3.44%, third value in Figure 3; for phase of induced cell cycle arrest: K562 cells, 1 and 2 µM
Experimental: Deregulation of the cell cycle divided into G0/G1 phase, S phase, and G2/M phase is one of the most frequent alterations during cancer development. Thus, the cell cycle analysis is usually performed in the anticancer evaluation.
After treatment, cells were collected and fixed with 70% pre-cold ethanol in PBS and stored at −20°C overnight. […] Finally, DNA content was measured by flow cytometry (FACSAriaIII, Becton Dickinson, United States). The data was analyzed and fitted by ModFit software.

Chain of HDAC3 (O15379 whole entry): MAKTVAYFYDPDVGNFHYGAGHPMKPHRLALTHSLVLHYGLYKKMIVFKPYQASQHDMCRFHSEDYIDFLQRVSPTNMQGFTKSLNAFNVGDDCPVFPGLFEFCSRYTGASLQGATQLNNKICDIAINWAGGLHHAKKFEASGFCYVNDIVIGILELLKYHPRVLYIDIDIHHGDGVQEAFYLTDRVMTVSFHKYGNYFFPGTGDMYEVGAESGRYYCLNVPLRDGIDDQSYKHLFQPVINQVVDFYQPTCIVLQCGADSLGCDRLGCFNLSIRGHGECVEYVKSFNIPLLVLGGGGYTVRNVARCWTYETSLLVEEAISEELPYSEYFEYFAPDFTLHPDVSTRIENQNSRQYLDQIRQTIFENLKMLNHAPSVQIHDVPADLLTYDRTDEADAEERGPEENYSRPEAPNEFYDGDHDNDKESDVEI
Chain of HDAC3 (Q9Y618 395-489 partner limits assumed): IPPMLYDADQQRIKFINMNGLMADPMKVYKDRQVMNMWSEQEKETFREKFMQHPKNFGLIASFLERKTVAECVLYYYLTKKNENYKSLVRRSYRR
Chain of HDAC2 (Q92769 whole entry): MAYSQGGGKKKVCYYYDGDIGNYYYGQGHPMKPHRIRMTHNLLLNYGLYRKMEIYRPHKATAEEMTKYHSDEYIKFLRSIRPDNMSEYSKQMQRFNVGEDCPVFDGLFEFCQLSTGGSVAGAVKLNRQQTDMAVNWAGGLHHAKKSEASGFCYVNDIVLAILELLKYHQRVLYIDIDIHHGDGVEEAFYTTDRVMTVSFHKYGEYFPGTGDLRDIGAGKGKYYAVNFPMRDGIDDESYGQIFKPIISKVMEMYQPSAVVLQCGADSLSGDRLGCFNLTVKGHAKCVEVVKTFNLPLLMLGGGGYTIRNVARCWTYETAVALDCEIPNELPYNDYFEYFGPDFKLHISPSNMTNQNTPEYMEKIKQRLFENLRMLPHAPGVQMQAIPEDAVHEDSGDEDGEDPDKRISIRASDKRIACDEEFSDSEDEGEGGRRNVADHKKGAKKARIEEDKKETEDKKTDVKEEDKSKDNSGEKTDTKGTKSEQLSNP
Chain of HDAC1 (Q13547 whole entry): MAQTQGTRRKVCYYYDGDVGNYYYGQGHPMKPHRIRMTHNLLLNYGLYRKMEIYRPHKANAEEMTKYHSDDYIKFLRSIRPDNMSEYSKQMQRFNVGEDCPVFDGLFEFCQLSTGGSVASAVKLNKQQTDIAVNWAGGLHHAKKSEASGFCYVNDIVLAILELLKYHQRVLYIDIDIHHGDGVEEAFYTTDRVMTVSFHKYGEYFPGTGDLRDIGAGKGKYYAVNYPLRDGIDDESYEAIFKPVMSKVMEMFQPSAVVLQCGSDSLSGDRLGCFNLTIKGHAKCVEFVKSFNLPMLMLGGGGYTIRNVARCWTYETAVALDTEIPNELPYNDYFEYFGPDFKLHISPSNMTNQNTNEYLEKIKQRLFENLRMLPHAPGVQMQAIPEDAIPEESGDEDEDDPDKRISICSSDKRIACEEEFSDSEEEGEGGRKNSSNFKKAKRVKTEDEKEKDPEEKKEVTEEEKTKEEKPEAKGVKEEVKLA

| SMILES | IC50 (MCF-7) [µM] | IC50 (HDAC1) [µM] | IC50 (MDA-MB-468) [µM] | IC50 (HDAC2) [µM] | IC50 (HDAC3) [µM] | melting point [°C] | IC50 (MDA-MB-231) [µM] | IC50 (HepG2) [µM] | IC50 (U266) [µM] | IC50 (U937) [µM] | IC50 (A549) [µM] | IC50 (K562 cells [2]) [µM] | IC50 (A2780) [µM] | IC50 (HDAC6) [µM] | HDACs percentage inhibitory rate (PIR) [1] [%] | IC50 (Fadu) [µM] | inhibition at 2 µM (K562 cells [2]) [%] | apoptotic cell proportion (apoptotic rate) (K562 cells [3]; K562, 1 μM) [%] | apoptotic cell proportion (apoptotic rate) (K562 cells [3]; K562, 2 μM) [%] | apoptotic cell proportion (apoptotic rate) (K562 cells [3]; K562, 4 μM) [%] | other results |
| --- | --- | --- | --- | --- | --- | --- | --- | --- | --- | --- | --- | --- | --- | --- | --- | --- | --- | --- | --- | --- | --- |
| O=C(NO)c1ccc(N2CCN(C(=O)c3cc(-c4ccc(-c5ccccc5)cc4)nc4ccccc34)CC2)cc1 [Compound D28, 4-(4-(2-([1,1′-Biphenyl]-4-yl)Quinoline-4-Carbonyl)Piperazin-1-yl)-N-Hydroxybenzamide] | 5.66 ± 0.26 |  | 2.89 ± 0.13 | > 1000 | 24.5 ± 1.24 |  | 4.15 ± 0.22 | 2.16 ± 0.13 | 1.08 ± 0.02 | 1.11 ± 0.03 | 2.83 ± 0.17 | 1.02 ± 0.01 | 3.86 ± 0.29 | > 1000 | 68.00 ± 2.49 | 3.22 ± 0.14 | 71.9 ± 2.32 | 10.10 | 15.53 | 27.92 | G2/M phase ratio of K562 cells (K562 cells [4]; 1 μM): 5.95%; G2/M phase ratio of K562 cells (K562 cells [4]; 2 μM): 32.57%; phase of induced cell cycle arrest (K562 cells [4]): G2/M phase |
| O=C(CCCCCCC(=O)Nc1ccccc1)NO [SAHA, Vorinostat, reference compound] |  |  |  |  |  |  |  | 1.87 ± 0.11 |  | 1.68 ± 0.03 |  | 1.55 ± 0.02 |  |  |  | 2.17 ± 0.92 |  | 1.39 | 3.36 | 19.75 | phase of induced cell cycle arrest (K562 cells [4]): G0/G1 phase |
| O=C(NO)c1ccc(N2CCN(C(=O)c3cc(-c4ccccc4Cl)nc4ccccc34)CC2)cc1 [Compound D14, 4-(4-(2-(2-Chlorophenyl)Quinoline-4-Carbonyl)Piperazin-1-yl)-N-Hydroxybenzamide] |  |  |  |  |  | 235 to 236.4 |  |  |  |  |  |  |  |  | 49.74 ± 2.06 |  | 48.3 ± 1.02 |  |  |  |  |

Now from value to molecule, other results behind:

| IC50 (MCF-7) [µM] | IC50 (HDAC1) [µM] | IC50 (MDA-MB-468) [µM] | IC50 (HDAC2) [µM] | IC50 (HDAC3) [µM] | melting point [°C] | IC50 (MDA-MB-231) [µM] | IC50 (HepG2) [µM] | IC50 (U266) [µM] | IC50 (U937) [µM] | IC50 (A549) [µM] | IC50 (K562 cells [2]) [µM] | IC50 (A2780) [µM] | IC50 (HDAC6) [µM] | SMILES | HDACs percentage inhibitory rate (PIR) [1] [%] | IC50 (Fadu) [µM] | inhibition at 2 µM (K562 cells [2]) [%] | apoptotic cell proportion (apoptotic rate) (K562 cells [3]; K562, 1 μM) [%] | apoptotic cell proportion (apoptotic rate) (K562 cells [3]; K562, 2 μM) [%] | apoptotic cell proportion (apoptotic rate) (K562 cells [3]; K562, 4 μM) [%] | other results |
| --- | --- | --- | --- | --- | --- | --- | --- | --- | --- | --- | --- | --- | --- | --- | --- | --- | --- | --- | --- | --- | --- |
| 18.8 ± 1.22 | 1.43 ± 0.02 | > 50 | 8.13 ± 0.26 | 0.1 ± 0.003 | 225.3 to 227.3 | > 50 | > 50 | 3.68 ± 0.16 | 5.87 ± 0.24 | > 50 | 7.66 ± 0.25 | > 50 | > 1000 | CCCCNNC(=O)c1ccc(N2CCN(C(=O)c3cc(-c4ccc(-c5ccccc5)cc4)nc4ccccc34)CC2)cc1 [Compound D30, 4-(4-(2-([1,1′-Biphenyl]-4-yl)Quinoline-4-Carbonyl)Piperazin-1-yl)-N′-Butylbenzohydrazide] | 69.35 ± 3.44 | > 50 | 65.8 ± 2.95 |  |  |  |  |
| 12.6 ± 0.97 | 32.6 ± 1.97 | > 50 | 184 ± 4.32 | 0.477 ± 0.01 | 223.3 to 224.2 | > 50 | > 50 | 2.87 ± 0.11 | 4.22 ± 0.08 | > 50 | 5.27 ± 0.14 | > 50 | > 1000 | CCCNNC(=O)c1ccc(N2CCN(C(=O)c3cc(-c4ccc(-c5ccccc5)cc4)nc4ccccc34)CC2)cc1 [Compound D29, 4-(4-(2-([1,1′-Biphenyl]-4-yl)Quinoline-4-Carbonyl)Piperazin-1-yl)-N′-Propylbenzohydrazide] | 62.14 ± 2.11 | > 50 | 62.4 ± 3.87 |  |  |  |  |
